Data published in PubChem BioAssay (NCI).
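Cultured in 96-well plates, cells were exposed to test compound for 48 hours across five concentrations. GI50 = concentration required for 50% inhibition of growth. TGI: concentration producing complete growth inhibition.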

Assays:
Test in all cases: NCI anticancer screen, dose series, 48 h
[1] = system: 786-0 renal
[2] = system: ACHN renal
[3] = system: SK-MEL-2 melanoma
[4] = system: HT29 colon
[5] = system: LOX IMVI melanoma
[6] = system: BT-549 breast
[7] = system: UACC-62 melanoma
[8] = system: PC-3 prostate
[9] = system: SF-295 CNS
[10] = system: MALME-3M melanoma

SMILES	GI50 [1] [µM]	TGI [1] [µM]	GI50 [2] [µM]	TGI [2] [µM]	GI50 [3] [µM]	TGI [3] [µM]	GI50 [4] [µM]	TGI [4] [µM]	GI50 [5] [µM]	TGI [5] [µM]	GI50 [6] [µM]	TGI [6] [µM]	GI50 [7] [µM]	GI50 [8] [µM]	TGI [8] [µM]	GI50 [9] [µM]	TGI [9] [µM]	GI50 [10] [µM]	TGI [10] [µM]	TGI [7] [µM]
C[C@H](O)C(=O)N1CCC(CCn2c(Sc3cc4c(cc3Br)OCO4)nc3c(N)ncnc32)CC1	3.77	> 100	0.84	> 100	4.63	> 100	0.432	> 100	0.596	6.9	1.93	> 100	0.862	1.16	> 100	0.741	> 22.8	0.807	> 100	–
Nc1nc(F)nc2c1ncn2C1OC(CO)C(O)C1O (stereo not given)	13.2	> 100	23.2	> 100	–	> 100	–	> 100	19.9	> 100	–	> 100	89.8	41.6	> 100	–	> 100	28.1	> 100	> 100
COc1ccc(CC2NCCc3cc(OC)c(OC)cc32)cc1Br (stereo not given)	–	> 100	–	> 100	–	61.6	–	57.9	–	47.1	–	> 100	–	–	> 100	–	86.7	–	34.3	> 77.5
Br[C](Br)(Br)[Hg][c]1ccccc1	16.2	30.2	17.1	30.8	17.8	32	11.1	25.5	9.71	23.2	17.2	31.1	16.4	14.7	28	15.6	30	1.31	3.99	38.2
O=C1Nc2ccc(F)cc2/C1=C/c1ccc[nH]1	> 25	> 25	18.5	> 25	> 25	> 25	> 25	> 25	24.2	> 25	> 18.8	> 25	> 25	> 25	> 25	> 25	> 25	> 25	> 25	> 25
C#Cc1c(I)n(C2OC(CO[Si](C)(C)C(C)(C)C)C3OC(C)(C)OC32)c(=O)[nH]c1=O (stereo not given)	14.7	29.4	17.8	39.7	5.35	26.1	19.2	52.2	3.42	18.5	16.4	31.2	17.9	1.72	4.27	28.4	98.7	2.41	6.59	33.7
C=C1C(=O)OC2/C=C(\COC(C)=O)CCC(OC(C)=O)C3=CC(OC3=O)C12 (stereo not given)	–	20.9	–	9.13	–	14.7	–	15.8	–	19	–	22.6	–	–	30.5	–	32.6	–	4.41	17.6
